The target in assay [1] is T1, von Hippel-Lindau disease tumor suppressor/Bromodomain-containing protein 4 (Homo sapiens, UniProt O60885+P40337). As to the kind of experiment: PROTAC activity at BRD4/VHL in human MCF7 cells assessed as induction of BRD4 degradation by measuring residual activity at 10 uM incubated for 24 hrs in presence of 100 nM VHL based ligand (2S,4R)-1-((S)-2-(2,3-dihydroxybenzamido)-3,3-dimethylbutanoyl)-4-hydroxy-N-(4-(4-methylthiazol-5-yl)benzyl)pyrrolidine-2-carboxamide by Western blot based Combinatorial Ubiquitination Real-time PROteolysis analysis. The class given is cell-based.
T1 sequence (P40337 whole entry, looked up, other chains not shown): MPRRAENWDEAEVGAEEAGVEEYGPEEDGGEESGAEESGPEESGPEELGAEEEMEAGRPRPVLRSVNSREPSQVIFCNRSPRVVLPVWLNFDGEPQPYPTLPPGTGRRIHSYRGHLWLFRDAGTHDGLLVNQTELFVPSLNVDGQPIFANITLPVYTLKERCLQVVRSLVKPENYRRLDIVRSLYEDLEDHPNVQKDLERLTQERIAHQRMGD

The target in assay [2] is T1, von Hippel-Lindau disease tumor suppressor/Bromodomain-containing protein 4. As to the kind of experiment: PROTAC activity at VHL/BRD4 in HEK293 cells assessed as induction of BRD4 degradation by measuring maximal level of degradation at 10 uM measured every 15 mins for 24 hrs in presence of VHL based ligand (2S,4R)-1-((S)-2-(2,3-dihydroxybenzamido)-3,3-dimethylbutanoyl)-4-hydroxy-N-(4-(4-methylthiazol-5-yl)benzyl)pyrrolidine-2-carboxamide by HiBiT based Combinatorial Ubiquitination Real-time PROteolysis analysis. The format is cell-based.

Assay [3] has the same target. As to the kind of experiment: PROTAC activity at BRD4/VHL in human MCF7 cells assessed as induction of BRD4 degradation by measuring residual activity at 100 nM incubated for 24 hrs in presence of VHL based ligand (2S,4R)-1-((S)-2-(2,3-dihydroxybenzamido)-3,3-dimethylbutanoyl)-4-hydroxy-N-(4-(4-methylthiazol-5-yl)benzyl)pyrrolidine-2-carboxamide by Western blot based Combinatorial Ubiquitination Real-time PROteolysis analysis. The format is cell-based.

Assay [4] has the same target. As to the kind of experiment: PROTAC activity at BRD4/VHL in human MCF7 cells assessed as induction of BRD4 degradation by measuring residual activity at 300 nM incubated for 24 hrs in presence of 10 uM VHL based ligand (2S,4R)-1-((S)-2-(2,3-dihydroxybenzamido)-3,3-dimethylbutanoyl)-4-hydroxy-N-(4-(4-methylthiazol-5-yl)benzyl)pyrrolidine-2-carboxamide by Western blot based Combinatorial Ubiquitination Real-time PROteolysis analysis. The format is cell-based.

Assay [5] relates to MV4-11. As to the kind of experiment: Antitumor activity against human MV4-11 cells xenografted in nude mouse assessed as reduction in BRD4 level in tumor at 10 mg/kg, ip administered for 4 hrs and measured at 9 to 12 hrs in presence of VHL based ligand (2S,4R)-1-((S)-2-(2,3-dihydroxybenzamido)-3,3-dimethylbutanoyl)-4-hydroxy-N-(4-(4-methylthiazol-5-yl)benzyl)pyrrolidine-2-carboxamide. The format is functional, organism-based. Conditions: time 9-12 hrs.

Assay [6] concerns the target T1, von Hippel-Lindau disease tumor suppressor/Bromodomain-containing protein 4. The experiment in a line: PROTAC activity at BRD4/VHL in human MCF7 cells assessed as induction of BRD4 degradation by measuring residual activity at 30 nM incubated for 24 hrs in presence of 100 nM VHL based ligand (2S,4R)-1-((S)-2-(2,3-dihydroxybenzamido)-3,3-dimethylbutanoyl)-4-hydroxy-N-(4-(4-methylthiazol-5-yl)benzyl)pyrrolidine-2-carboxamide by Western blot based Combinatorial Ubiquitination Real-time PROteolysis analysis. The class given is cell-based.

For assay [7] the target is unchanged. As to the kind of experiment: PROTAC activity at BRD4/VHL in human MCF7 cells assessed as induction of BRD4 degradation by measuring residual activity at 30 nM incubated for 24 hrs in presence of 3 uM VHL based ligand (2S,4R)-1-((S)-2-(2,3-dihydroxybenzamido)-3,3-dimethylbutanoyl)-4-hydroxy-N-(4-(4-methylthiazol-5-yl)benzyl)pyrrolidine-2-carboxamide by Western blot based Combinatorial Ubiquitination Real-time PROteolysis analysis. The format is cell-based.

The target is the same in assay [8]. The experiment in a line: PROTAC activity at BRD4/VHL in human MCF7 cells assessed as induction of BRD4 degradation by measuring residual activity at 300 nM incubated for 24 hrs in presence of 1 uM BRD4 based ligand ((4S)-6-(4-chlorophenyl)-4-(2-(ethylamino)-2-oxoethyl)-1-methyl4Hbenzo[f][1,2,4]triazolo [4,3-a][1,4]diazepin-8-yl)boronic acid by Western blot based Combinatorial Ubiquitination Real-time PROteolysis analysis. The class given is cell-based.

Assay [9] shares this target. The experiment in a line: PROTAC activity at BRD4/VHL in human MCF7 cells assessed as induction of BRD4 degradation by measuring residual activity at 1 uM incubated for 24 hrs in presence of BRD4 based ligand ((4S)-6-(4-chlorophenyl)-4-(2-(ethylamino)-2-oxoethyl)-1-methyl4Hbenzo[f][1,2,4]triazolo [4,3-a][1,4]diazepin-8-yl)boronic acid by Western blot based Combinatorial Ubiquitination Real-time PROteolysis analysis. The class given is cell-based.

Assay [10] shares this target. The experiment in a line: PROTAC activity at BRD4/VHL in human MCF7 cells assessed as induction of BRD4 degradation by measuring residual activity at 100 nM incubated for 24 hrs in presence of 1 uM BRD4 based ligand ((4S)-6-(4-chlorophenyl)-4-(2-(ethylamino)-2-oxoethyl)-1-methyl4Hbenzo[f][1,2,4]triazolo [4,3-a][1,4]diazepin-8-yl)boronic acid by Western blot based Combinatorial Ubiquitination Real-time PROteolysis analysis. The format is cell-based.

Active and inactive are the calls of the source. No cut-off for these calls is given here.

Consider `CCNC(=O)C[C@@H]1N=C(c2ccc(Cl)cc2)c2cc(B(O)O)ccc2-n2c(C)nnc21`, for which the Activity in assay [1] came to 55%; in assay [3], 89%; in assay [4], 40%; in assay [6], 89%; in assay [7], 90%. The maximal effect (Emax) in assay [2] came to 96%. Also, in [5], the result was Active.

As to `Cc1ncsc1-c1ccc(CNC(=O)[C@@H]2C[C@@H](O)CN2C(=O)[C@@H](NC(=O)c2cccc(O)c2O)C(C)(C)C)cc1`, the Activity in [8] turned out to be 38%; in [9], 64%; in assay [10], 101%.

For the origin of these results see ChEMBL document CHEMBL5543126, “Combinatorial Ubiquitination REal-time PROteolysis (CURE-PROs): A Modular Platform for Generating Reversible, Self-Assembling Bifunctional Targeted Degraders” (J Med Chem, 2024).
